# Measured values published in PubChem BioAssay (NCI).
#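 Method: 48-hour compound exposure of cells in 96-well plates, five concentrations, linear interpolation of endpoints. Definition used: TGI = concentration required for complete inhibition of growth.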
# Columns and labels:
# Experiment in all cases: NCI anticancer screen, dose series, 48 h
# MDA-MB-435 = test system: MDA-MB-435
# A498 renal = test system: A498 renal
# HT29 colon = test system: HT29 colon
# MOLT-4 leukemia = test system: MOLT-4 leukemia
# SF-268 CNS = test system: SF-268 CNS
# MCF7 breast = test system: MCF7 breast
# TK-10 renal = test system: TK-10 renal
# NCI-H226 lung = test system: NCI-H226 lung
# SK-OV-3 ovarian = test system: SK-OV-3 ovarian
# UACC-62 melanoma = test system: UACC-62 melanoma
# HS 578T breast = test system: HS 578T breast
# 786-0 renal = test system: 786-0 renal
# SR leukemia = test system: SR leukemia
# SNB-75 CNS = test system: SNB-75 CNS
# MDA-N = test system: MDA-N
# CAKI-1 renal = test system: CAKI-1 renal
# T-47D breast = test system: T-47D breast
# ACHN renal = test system: ACHN renal
# OVCAR-8 ovarian = test system: OVCAR-8 ovarian
# BT-549 breast = test system: BT-549 breast
# DU-145 prostate = test system: DU-145 prostate
# HOP-92 NSCLC = test system: HOP-92 NSCLC
# COLO 205 colon = test system: COLO 205 colon
# NCI-H460 lung = test system: NCI-H460 lung
# M14 melanoma = test system: M14 melanoma
# UO-31 renal = test system: UO-31 renal
# UACC-257 melanoma = test system: UACC-257 melanoma
# PC-3 prostate = test system: PC-3 prostate
# LOX IMVI melanoma = test system: LOX IMVI melanoma
# KM12 colon = test system: KM12 colon
# OVCAR-5 ovarian = test system: OVCAR-5 ovarian
# U251 CNS = test system: U251 CNS
# K-562 leukemia = test system: K-562 leukemia
# IGROV1 ovarian = test system: IGROV1 ovarian
# SK-MEL-28 melanoma = test system: SK-MEL-28 melanoma
# NCI-H23 lung = test system: NCI-H23 lung
# EKVX NSCLC = test system: EKVX NSCLC
# SNB-19 CNS = test system: SNB-19 CNS
# SN12C renal = test system: SN12C renal
# CCRF-CEM leukemia = test system: CCRF-CEM leukemia
# RPMI-8226 leukemia = test system: RPMI-8226 leukemia
# HL-60(TB) leukemia = test system: HL-60(TB) leukemia
# SF-295 CNS = test system: SF-295 CNS
# HCT-15 colon = test system: HCT-15 colon
# SW-620 colon = test system: SW-620 colon
# A549 NSCLC = test system: A549 NSCLC
# HCT-116 colon = test system: HCT-116 colon
# SK-MEL-5 melanoma = test system: SK-MEL-5 melanoma
# NCI/ADR-RES ovarian = test system: NCI/ADR-RES ovarian
# SK-MEL-2 melanoma = test system: SK-MEL-2 melanoma
# MDA-MB-231 breast = test system: MDA-MB-231 breast
# HOP-62 NSCLC = test system: HOP-62 NSCLC
# OVCAR-3 ovarian = test system: OVCAR-3 ovarian
# SF-539 CNS = test system: SF-539 CNS
# RXF 393 renal = test system: RXF 393 renal
# MALME-3M melanoma = test system: MALME-3M melanoma
# OVCAR-4 ovarian = test system: OVCAR-4 ovarian
smiles,measurement,setting,value
CC(=O)/C(N=Nc1ccc(-n2c(C)nc3ccccc3c2=O)cc1)=C(/C)O,TGI,MDA-MB-435,> 100 µM
same,TGI,A498 renal,> 100 µM
same,TGI,HT29 colon,> 100 µM
same,TGI,MOLT-4 leukemia,> 100 µM
same,TGI,SF-268 CNS,> 100 µM
same,TGI,MCF7 breast,> 100 µM
same,TGI,TK-10 renal,> 100 µM
same,TGI,NCI-H226 lung,> 100 µM
same,TGI,SK-OV-3 ovarian,> 100 µM
same,TGI,UACC-62 melanoma,> 100 µM
same,TGI,HS 578T breast,> 100 µM
same,TGI,786-0 renal,> 100000 nM
same,TGI,SR leukemia,> 100 µM
same,TGI,SNB-75 CNS,> 100 µM
same,TGI,MDA-N,> 100 µM
same,TGI,CAKI-1 renal,> 100 µM
same,TGI,T-47D breast,> 100 µM
same,TGI,ACHN renal,> 100 µM
same,TGI,OVCAR-8 ovarian,> 100 µM
same,TGI,BT-549 breast,> 100 µM
same,TGI,DU-145 prostate,> 100 µM
same,TGI,HOP-92 NSCLC,> 100 µM
same,TGI,COLO 205 colon,> 100 µM
same,TGI,NCI-H460 lung,> 100 µM
same,TGI,M14 melanoma,> 100 µM
same,TGI,UO-31 renal,> 100 µM
same,TGI,UACC-257 melanoma,> 100 µM
same,TGI,PC-3 prostate,> 100 µM
same,TGI,LOX IMVI melanoma,> 100 µM
same,TGI,KM12 colon,> 100 µM
same,TGI,OVCAR-5 ovarian,> 100 µM
same,TGI,U251 CNS,> 100 µM
same,TGI,K-562 leukemia,> 100 µM
same,TGI,IGROV1 ovarian,> 100 µM
same,TGI,SK-MEL-28 melanoma,> 100 µM
same,TGI,NCI-H23 lung,> 100 µM
same,TGI,EKVX NSCLC,> 100 µM
same,TGI,SNB-19 CNS,> 100 µM
same,TGI,SN12C renal,> 100 µM
same,TGI,CCRF-CEM leukemia,> 100 µM
same,TGI,RPMI-8226 leukemia,> 100 µM
same,TGI,HL-60(TB) leukemia,> 100 µM
same,TGI,SF-295 CNS,> 100 µM
same,TGI,HCT-15 colon,> 100 µM
same,TGI,SW-620 colon,> 100 µM
same,TGI,A549 NSCLC,> 100 µM
same,TGI,HCT-116 colon,> 100 µM
same,TGI,SK-MEL-5 melanoma,> 100000 nM
same,TGI,NCI/ADR-RES ovarian,> 100 µM
same,TGI,SK-MEL-2 melanoma,> 100 µM
same,TGI,MDA-MB-231 breast,> 100 µM
same,TGI,HOP-62 NSCLC,> 100 µM
same,TGI,OVCAR-3 ovarian,> 100 µM
same,TGI,SF-539 CNS,> 100 µM
NCCN1C(=O)c2cc(Cl)c(Cl)cc2C1(O)c1ccc(Cl)cc1 (stereo not given),TGI,MDA-MB-435,3.13 µM
same,TGI,A498 renal,10.2 µM
same,TGI,HT29 colon,3.81 µM
same,TGI,MOLT-4 leukemia,5.28 µM
same,TGI,SF-268 CNS,6.65 µM
same,TGI,MCF7 breast,3.73 µM
same,TGI,TK-10 renal,3.53 µM
same,TGI,SK-OV-3 ovarian,26.3 µM
same,TGI,UACC-62 melanoma,3.25 µM
same,TGI,HS 578T breast,8.44 µM
same,TGI,786-0 renal,2960 nM
same,TGI,SR leukemia,3.96 µM
same,TGI,SNB-75 CNS,8.26 µM
same,TGI,MDA-N,3.47 µM
same,TGI,RXF 393 renal,3.06 µM
same,TGI,CAKI-1 renal,7.02 µM
same,TGI,MALME-3M melanoma,3.49 µM
same,TGI,T-47D breast,4.55 µM
same,TGI,ACHN renal,4.75 µM
same,TGI,OVCAR-8 ovarian,3.92 µM
same,TGI,BT-549 breast,13.4 µM
same,TGI,DU-145 prostate,6.81 µM
same,TGI,HOP-92 NSCLC,12.5 µM
same,TGI,COLO 205 colon,3.02 µM
same,TGI,NCI-H460 lung,3.64 µM
same,TGI,M14 melanoma,3.23 µM
same,TGI,UO-31 renal,17.2 µM
same,TGI,UACC-257 melanoma,3.47 µM
same,TGI,PC-3 prostate,19.3 µM
same,TGI,LOX IMVI melanoma,3.28 µM
same,TGI,KM12 colon,4.17 µM
same,TGI,OVCAR-5 ovarian,12.2 µM
same,TGI,U251 CNS,3.17 µM
same,TGI,K-562 leukemia,4.09 µM
same,TGI,IGROV1 ovarian,4.89 µM
same,TGI,SK-MEL-28 melanoma,3.21 µM
same,TGI,NCI-H23 lung,6.78 µM
same,TGI,EKVX NSCLC,6.75 µM
same,TGI,SNB-19 CNS,7.73 µM
same,TGI,SN12C renal,13.4 µM
same,TGI,CCRF-CEM leukemia,10.1 µM
same,TGI,RPMI-8226 leukemia,5.39 µM
same,TGI,HL-60(TB) leukemia,3.44 µM
same,TGI,OVCAR-4 ovarian,4.24 µM
same,TGI,SF-295 CNS,3.9 µM
same,TGI,HCT-15 colon,5.33 µM
same,TGI,SW-620 colon,3.7 µM
same,TGI,A549 NSCLC,4.76 µM
same,TGI,HCT-116 colon,3.09 µM
same,TGI,SK-MEL-5 melanoma,2990 nM
same,TGI,NCI/ADR-RES ovarian,7.25 µM
same,TGI,SK-MEL-2 melanoma,3.63 µM
same,TGI,MDA-MB-231 breast,3.75 µM
same,TGI,HOP-62 NSCLC,4.21 µM
same,TGI,OVCAR-3 ovarian,4.74 µM
same,TGI,SF-539 CNS,3.1 µM
